Source: ChEMBL document CHEMBL1201862, “PubChem BioAssay data set” (2004)
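Values below derive from 48-hour exposures of cells grown in 96-well plates, with endpoints linearly interpolated between the two concentrations bracketing the appropriate inhibition level. At the GI50, growth is halved.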 Active and inactive are the calls of the source. Cut-off read from the data, not from the text of the source: active = GI50 up to about 1.1 µM and inactive = higher. Where a SMILES comes first, the peptide text is derived from it. Bridges are numbered along the chain shown (N, C = ends). [ ]: non-standard residue; d: D form. The star is where a group is joined. ξ: configuration not given here. X28 = O=C(/C=C/C=C/C=C/C=C/C=C/C(=O)*)NC1=C(O)CCC1=O; NMeA = CN[C@@H](C)C(=O)O; ξF = NC(Cc1ccccc1)C(=O)O; ξA = CC(N)C(=O)O

Columns and labels:
Assay in all cases: NCI tumour cell line growth inhibition, 48 h
[1] = test system: 786-0
[2] = test system: A498
[3] = test system: A549
[4] = test system: ACHN
[5] = test system: BT-549
[6] = test system: CAKI-1
[7] = test system: CCRF-CEM
[8] = test system: COLO 205
[9] = test system: DU-145
[10] = test system: EKVX
[11] = test system: HCT-116
[12] = test system: HCT-15
[13] = test system: HL-60
[14] = test system: HOP-62
[15] = test system: HT-29
[16] = test system: Hs-578T
[17] = test system: IGROV-1
[18] = test system: K562
[19] = test system: KM12
[20] = test system: LOX IMVI
[21] = test system: M14
[22] = test system: MCF7
[23] = test system: MDA-MB-231
[24] = test system: MDA-MB-435
[25] = test system: MDA-N
[26] = test system: MOLT-4
[27] = test system: Malme-3M
[28] = test system: NCI-H226
[29] = test system: NCI-H23
[30] = test system: NCI-H460
[31] = test system: NCI-H522
[32] = test system: NCI/ADR-RES
[33] = test system: OVCAR-3
[34] = test system: OVCAR-4
[35] = test system: OVCAR-5
[36] = test system: OVCAR-8
[37] = test system: PC-3
[38] = test system: RPMI-8226
[39] = test system: RXF 393
[40] = test system: SF-268
[41] = test system: SF-295
[42] = test system: SF-539
[43] = test system: SK-MEL-28
[44] = test system: SK-MEL-2
[45] = test system: SK-MEL-5
[46] = test system: SK-OV-3
[47] = test system: SN12C
[48] = test system: SNB-19
[49] = test system: SNB-75
[50] = test system: SR
[51] = test system: SW-620
[52] = test system: T47D
[53] = test system: TK-10
[54] = test system: U-251
[55] = test system: UACC-257
[56] = test system: UO-31
[57] = test system: HCC 2998
[58] = test system: HOP-92
[59] = test system: UACC-62

## COc1ccc2oc(=N)c(C(=O)NCc3ccccc3)cc2c1
[1]
  GI50: 27.9 µM (inactive)
[2]
  GI50: 15.2 µM (inactive)
[3]
  GI50: 34 µM (inactive)
[4]
  GI50: 13.3 µM (inactive)
[5]
  GI50: 17.7 µM (inactive)
[6]
  GI50: 34.6 µM (inactive)
[7]
  GI50: 62.1 µM (inactive)
[8]
  GI50: 31.7 µM (inactive)
[9]
  GI50: 24.3 µM (inactive)
[10]
  GI50: 31.2 µM (inactive)
[11]
  GI50: 30.1 µM (inactive)
[12]
  GI50: 21.1 µM
[13]
  GI50: > 100 µM (inactive)
[14]
  GI50: 21.2 µM (inactive)
[15]
  GI50: 34.7 µM (inactive)
[16]
  GI50: 15.8 µM (inactive)
[17]
  GI50: 19.9 µM (inactive)
[18]
  GI50: 41.6 µM (inactive)
[19]
  GI50: 13.3 µM (inactive)
[20]
  GI50: 38.6 µM (inactive)
[21]
  GI50: 33.2 µM (inactive)
[22]
  GI50: 24 µM (inactive)
[23]
  GI50: 23.3 µM (inactive)
[24]
  GI50: 14.5 µM (inactive)
[25]
  GI50: 19.8 µM (inactive)
[26]
  GI50: 46.3 µM (inactive)
[27]
  GI50: 15.5 µM (inactive)
[28]
  GI50: 22.7 µM (inactive)
[29]
  GI50: 18.1 µM (inactive)
[30]
  GI50: 28.5 µM (inactive)
[31]
  GI50: 19.5 µM (inactive)
[32]
  GI50: 14.9 µM (inactive)
[33]
  GI50: 18.8 µM (inactive)
[34]
  GI50: 34.8 µM (inactive)
[35]
  GI50: 43.6 µM (inactive)
[36]
  GI50: 16.7 µM (inactive)
[37]
  GI50: 30.5 µM (inactive)
[38]
  GI50: 45 µM (inactive)
[39]
  GI50: 16.8 µM (inactive)
[40]
  GI50: 18.8 µM (inactive)
[41]
  GI50: 24.7 µM (inactive)
[42]
  GI50: 25.2 µM (inactive)
[43]
  GI50: 26.2 µM (inactive)
[44]
  GI50: 18.6 µM (inactive)
[45]
  GI50: 27.9 µM (inactive)
[46]
  GI50: 20.3 µM (inactive)
[47]
  GI50: 32.2 µM (inactive)
[48]
  GI50: 27.4 µM (inactive)
[49]
  GI50: 15.3 µM (inactive)
[50]
  GI50: 54.8 µM (inactive)
[51]
  GI50: 19 µM (inactive)
[52]
  GI50: 15 µM (inactive)
[53]
  GI50: 22.6 µM (inactive)
[54]
  GI50: 16.9 µM (inactive)
[55]
  GI50: 24.8 µM (inactive)
[56]
  GI50: 46.6 µM (inactive)

## CC1NC(=O)[C@H](C)N(C)C(=O)[C@@H]2CCCN2C(=O)[C@@H](NC(=O)C(Cc2ccccc2)NC(=O)/C=C/C=C/C=C/C=C/C=C/C(=O)NC2=C(O)CCC2=O)COC(=O)[C@@H]2CCCN2C1=O (stereo not given in full) (X28-[ξF]SP[NMeA][ξA]P; ester 2-C)
[1]
  GI50: > 100 µM (inactive)
[3]
  GI50: > 100 µM (inactive)
[4]
  GI50: > 100 µM (inactive)
[5]
  GI50: > 100 µM (inactive)
[6]
  GI50: 40.4 µM (inactive)
[7]
  GI50: > 100 µM (inactive)
[8]
  GI50: > 100 µM (inactive)
[9]
  GI50: 89.3 µM (inactive)
[10]
  GI50: 96.4 µM (inactive)
[57]
  GI50: > 100 µM (inactive)
[11]
  GI50: > 100 µM (inactive)
[12]
  GI50: > 100 µM
[13]
  GI50: > 100 µM (inactive)
[14]
  GI50: 48.1 µM (inactive)
[58]
  GI50: 78.2 µM (inactive)
[15]
  GI50: > 100 µM (inactive)
[16]
  GI50: 59.2 µM (inactive)
[17]
  GI50: > 100 µM (inactive)
[18]
  GI50: > 100 µM (inactive)
[19]
  GI50: 58.9 µM (inactive)
[20]
  GI50: > 100 µM (inactive)
[21]
  GI50: > 100 µM (inactive)
[22]
  GI50: > 100 µM (inactive)
[23]
  GI50: 22.7 µM (inactive)
[24]
  GI50: > 100 µM (inactive)
[25]
  GI50: > 100 µM (inactive)
[27]
  GI50: > 100 µM (inactive)
[29]
  GI50: > 100 µM (inactive)
[30]
  GI50: > 100 µM (inactive)
[31]
  GI50: > 100 µM (inactive)
[32]
  GI50: > 100 µM (inactive)
[33]
  GI50: > 100 µM (inactive)
[34]
  GI50: > 100 µM (inactive)
[35]
  GI50: > 100 µM (inactive)
[37]
  GI50: > 100 µM (inactive)
[38]
  GI50: > 100 µM (inactive)
[39]
  GI50: 35.5 µM (inactive)
[40]
  GI50: > 100 µM (inactive)
[41]
  GI50: > 100 µM (inactive)
[42]
  GI50: > 100 µM (inactive)
[43]
  GI50: > 100 µM (inactive)
[44]
  GI50: > 100 µM (inactive)
[45]
  GI50: > 100 µM (inactive)
[46]
  GI50: > 100 µM (inactive)
[47]
  GI50: > 100 µM (inactive)
[48]
  GI50: > 100 µM (inactive)
[49]
  GI50: 64.3 µM (inactive)
[50]
  GI50: 79.3 µM (inactive)
[51]
  GI50: > 100 µM (inactive)
[52]
  GI50: > 100 µM (inactive)
[53]
  GI50: 30.3 µM (inactive)
[54]
  GI50: > 100 µM (inactive)
[55]
  GI50: > 100 µM (inactive)
[59]
  GI50: > 100 µM (inactive)
[56]
  GI50: 29.2 µM (inactive)

## O=C(O)CCC(=O)c1ccc[nH]1
[1]
  GI50: > 100 µM (inactive)
[2]
  GI50: > 100 µM (inactive)
[3]
  GI50: > 100 µM (inactive)
[4]
  GI50: > 100 µM (inactive)
[5]
  GI50: > 100 µM (inactive)
[6]
  GI50: > 100 µM (inactive)
[8]
  GI50: > 100 µM (inactive)
[9]
  GI50: > 100 µM (inactive)
[10]
  GI50: > 100 µM (inactive)
[11]
  GI50: > 100 µM (inactive)
[12]
  GI50: > 100 µM
[14]
  GI50: > 100 µM (inactive)
[58]
  GI50: > 100 µM (inactive)
[15]
  GI50: > 100 µM (inactive)
[16]
  GI50: > 100 µM (inactive)
[17]
  GI50: > 100 µM (inactive)
[18]
  GI50: > 100 µM (inactive)
[19]
  GI50: > 100 µM (inactive)
[20]
  GI50: > 100 µM (inactive)
[21]
  GI50: > 100 µM (inactive)
[22]
  GI50: > 100 µM (inactive)
[23]
  GI50: > 100 µM (inactive)
[24]
  GI50: > 100 µM (inactive)
[25]
  GI50: > 100 µM (inactive)
[26]
  GI50: > 100 µM (inactive)
[27]
  GI50: > 100 µM (inactive)
[28]
  GI50: 64 µM (inactive)
[29]
  GI50: > 100 µM (inactive)
[30]
  GI50: > 100 µM (inactive)
[31]
  GI50: > 100 µM (inactive)
[32]
  GI50: > 100 µM (inactive)
[33]
  GI50: > 100 µM (inactive)
[34]
  GI50: > 100 µM (inactive)
[35]
  GI50: > 100 µM (inactive)
[36]
  GI50: > 100 µM (inactive)
[37]
  GI50: > 100 µM (inactive)
[38]
  GI50: > 100 µM (inactive)
[39]
  GI50: > 100 µM (inactive)
[40]
  GI50: > 100 µM (inactive)
[41]
  GI50: > 100 µM (inactive)
[42]
  GI50: > 100 µM (inactive)
[44]
  GI50: > 100 µM (inactive)
[45]
  GI50: > 100 µM (inactive)
[46]
  GI50: > 100 µM (inactive)
[47]
  GI50: 6.56 µM (inactive)
[48]
  GI50: > 100 µM (inactive)
[49]
  GI50: > 100 µM (inactive)
[50]
  GI50: > 100 µM (inactive)
[52]
  GI50: > 100 µM (inactive)
[53]
  GI50: > 100 µM (inactive)
[54]
  GI50: > 100 µM (inactive)
[55]
  GI50: 94 µM (inactive)
[59]
  GI50: > 100 µM (inactive)
[56]
  GI50: > 100 µM (inactive)
